According to patent EP0808325B1, “[…] […] SERIES FOR […] GABA RECEPTOR” (priority 1994, dated 1996):

Key:
rats = assay: Geller-Seifter conflict test; type: in vivo, Sprague-Dawley rats
Text: This animal model of human anxiety utilizes a conditioned state of conflict in rats to ascertain the anxiolytic properties of drugs. Rats are conditioned to bar press for positive reinforcement under two schedules of behavior (Geller and Seifter, Psychopharmacologia 1:482-492 (1960)). The first includes bar pressing under a […] schedule without punishment. The second component is a fixed ratio schedule with each bar press resulting in a positive reinforcement and a punishment. The punished component produces a state of conflict within the animal. […] An anxiolytic response would increase the punished responding without affecting the unpunished responding.
Male albino Sprague-Dawley rats (Charles River Labs, Wilmington, MA) weighing 250-300 g were used for conflict experiments and were kept on a restricted diet of Purina Lab Chow food pellets with water available at all times to maintain body weight at 85% of their free-feeding young adult levels. Rats were housed individually under a 12-hour light-dark cycle with lights on from 0700-1900.
The anti-anxiety (punishment-lessening) and response depressant effects of […] and […] were measured in rats by the conflict test of Geller and Seifter (1960). In this 63-min test, hungry rats perform a lever-press response to obtain a sweetened milk reward. The reinforcement schedule consists of punishment and nonpunishment components, alternating approximately every 15 min. Rats were trained in test chambers (Coulbourn instruments) with a lever mounted in one wall, a small dipper that delivered the 0.1-mL milk reward (1 part Eagle condensed : milk 2 parts water), and a metal grid floor through which the foot-shock punishment was administered. A DEC PDP 11/73 minicomputer running SKED (State Systems) was used for programming and recording.
Rates initially learned to respond on a continuous reinforcement schedule and progressed rapidly to 30-sec, 1-min, and 2-min variable interval (VI) schedules. On the continuous reinforcement schedule, rats received milk reward following every lever press; on the VI schedules, milk rewards were available at infrequent and variable intervals, eventually at an average of once every 2 min. Four 3-min "conflict" periods were then introduced on the unpunished VI baseline; the first started after 3 min of VI performance and the others were alternated between 12-min periods of VI responding. During conflict periods, which were signalled by the presentation of a light and a tone, the continuous reinforcement schedule was again in force and each lever press delivered both a milk reward and a brief ([…]) foot-shock punishment. Shock intensity was 0.2 mA initially, and.was increased daily in increments of 0.02 mA in order to gradually suppress lever pressing to 5 responses or less per conflict period. This training took 4-6 weeks, after which stable low rates of response were observed during conflict periods and stable high rates in the nonpunishment periods. Drug-induced increases in the rate of punished responses were taken as an index of antianxiety activity, while decreases in the rate of unpunished responses were taken as an index of response depression or sedation.

GR complex = assay: modulation of [35S]TBPS binding in rat cerebral cortex P2 homogenate; set-up: species or system Sprague-Dawley rats; IMAX: unit not given here; details: for IC50: concentration of compounds to inhibit 50% of control [35S]TBPS binding, 2 nM [35S]TBPS, 25°C, 90 minutes, no unit printed; for IMAX: maximum inhibition of [35S]TBPS binding, I* = Inactive
Description: We performed several experiments to determine the nature of the modulation of [^35S]TBPS as affected by the compounds of the invention.
These procedures were performed as follows:
Brains from male Sprague-Dawley rats were removed immediately following sacrifice and the cerebral cortices dissected over ice. […] Briefly, the cortices were gently homogenized in 0.32 M sucrose followed by centrifugation at 1000 x g for 10 minutes. The supernatant was collected and centrifuged at 9000 x g for 20 minutes. The resultant P2 pellet was suspended as a 10% (original wet weight/volume) suspension in 50 mM Na/K phosphate buffer (pH 7.4) 200 mM NaCI to form the homogenate.
One hundred microliter […] aliquots of the P2 homogenate (0.5 milligrams (mg) protein) were incubated with 2 nanomolar (nM) [^35S]TBPS (70-110 curies/millimole;, New England Nuclear, Boston, MA) in the presence or absence of the naturally occurring steroids or their synthetic derivatives to be tested. The tested compounds were dissolved in dimethylsulfoxide (Baker Chem. Co., Phillipsbury, NJ) and added to the incubation mixture in 5 µL aliquots. The incubation mixture was brought to a final volume of 1 mL with buffer. Nonspecific binding was defined as binding in the presence of […]. The effect and specificity of GABA (Sigma Chem. Co., St. Louis, MO) was evaluated by performing all assays in the presence of GABA plus (+)bicuculline (Sigma Chem. Co.). Incubations maintained at 25°C for 90 minutes (steady state conditions) were terminated by rapid filtration through glass fiber filters (No. 32, Schleicher and Schuell, Keene, NH). Filter-bound radioactivity was quantitated by liquid scintillation spectrophotometry.
Various compounds were screened to determine their potential as modulators of [^35S]TBPS binding in vitro. These assays were performed in accordance with the above discussed procedures. […] It is an indication of a compound's in vitro potency. Maximum inhibition is an indication of a compound's in vitro efficacy.

[1] = system: metrazol induced convulsions; assay: animal or person; type: in vivo, mice; details: IP
Description: Experiments were also performed to determine the physiological relevance of neuroactive steroid and GABA receptor interactions by assessing the ability of the compounds of and used in the invention to prevent metrazol induced convulsions in mice. […] The time to onset of myoclonus (presence of forelimb clonic activity) induced by metrazol was determined by observing each mouse for a period of 30 minutes. […]
The anticonvulsant tests are similar to that described above. […] The number of animals with tonic and/or clonic convulsions was recorded. In the maximal electroshock test, 50 mA of current at 60 Hz was delivered through corneal electrodes for 200 msec to induce tonic seizure. The ability of compounds to abolish the tonic component was defined as the endpoint. General CNS depression potential was determined by a rotorod test 10 minutes after the injection of compounds where the number of mice staying on a rotating (6 rpm) rod for 1 minute in one of the three trials was determined. […]

mice = assay: elevated plus-maze; type: in vivo, N.I.H. Swiss-Webster mice
Text: The theoretical basis for the elevated plus-maze test is similar to that of the light/dark transition test. As described by Pellow et al., J. Neurosci. Meth 14:149-167 (1985), the elevated plus-maze apparatus is designed to utilize the mice's natural aversion to open spaces. The apparatus consists of two open-arms and two enclosed-arms. The elevated plus-maze test allows for two measures of anxiety, the number of entries into the open-arms and the time spent on the open-arms, both expressed as a percentage of the total number of entries and time spent in/on both the open-arms and enclosed-arms.
Male N.I.H. Swiss-Webster mice (Harlan, Indianapolis, IN) weighing 15-20 g were housed four per cage in polyethylene cages with sawdust bedding. The colony room was environmentally controlled (22°C) with a 12 hr light/dark cycle (0600-1800 hr). Food and water were available ad libitum, except during testing. The experiments were run from 0700-1500 hr and groups were counterbalanced for time of day effects. Mice were only administered drug or vehicle once.
The method used was previously described (Lister, Psychopharmacol. 92:180-185 (1987)). The apparatus included two open arms perpendicular to two enclosed arms elevated 50 cm from the floor. Each arm was 50 cm long and the walls of the enclosed arms were 40 cm tall. The maze was made completely of black plexiglass. Incandescent 200 W light bulbs were above each of the open arms to produce a strong contrast between the open arms and the enclosed arms.
Ten minutes after an injection, the N.I.H. Swiss-Webster mice were placed in the center of the plus-maze facing an open arm. During the 5 min test period, the number of entries onto the open arms and the enclosed arms, and the time spent in the open arms and enclosed arms were measured. All four paws had to be within an arm for the dependent variable to be measured. Therefore, the time spent in the center of the maze is not counted, so the total time spent in the open arms and the enclosed arms may not equal 5 min. […]

[2] = 50% hpbcd, 10 mg/kg, 10 minutes prior to metrazol (85 mg/kg)

Compound | IC50 (GR complex) | IMAX (GR complex) | % Protected [1, 2] | % Control (mice; IP, 50% hpbcd, 10 mg/kg) | also measured
C[C@]12CC[C@](O)(C(F)(F)F)C[C@H]1CC[C@@H]1[C@@H]2CC[C@]2(C)[C@@H](C(=O)CO)CC[C@@H]12 [3α,21 Dihydroxy-3β-trifluoromethyl-5β-pregnan-20-one] | 0.354 µM | 102 | 50% | 237% | Geller/Seifter (% of control) (rats; sc, 50% hpbcd, 16 mg/kg): 982.4 % of control
CC1([C@H]2CC[C@H]3[C@@H]4CC[C@H]5C[C@](C)(O)CC[C@]5(C)[C@H]4CC[C@]23C)NC(C(=O)O)CS1 (stereo partly drawn) [3α-Hydroxy-3β-methyl-5α-pregnane-20-spiro-2'-(1'3'-thiazolidine-4'-carboxylic acid)] |  |  |  |  | Geller/Seifter (% of control) (rats; sc, 50% hpbcd, 16 mg/kg): 900.0 % of control
CC(=O)[C@H]1CC[C@H]2[C@@H]3CC[C@H]4C[C@](C)(O)CC[C@]4(C)[C@H]3CC[C@]12C [3α-hydroxy-3β-methyl-5α-pregnan-20-one] | 0.062 µM | 97 | 100% |  | Geller/Seifter (% of control) (rats; sc, 50% hpbcd, 4 mg/kg): 1384.6 % of control; % Control (mice; IP, 50% hpbcd, 5 mg/kg): 165.6%
CC(=O)[C@H]1CC[C@H]2[C@@H]3CC[C@@H]4C[C@@](O)(C(F)(F)F)CC[C@@H]4[C@H]3CC[C@]12C [3α-Hydroxy-3β-trifluoromethyl-5β-19-norpregnan-20-one] | 0.076 µM | 100 | 100% | 173.8% | Geller/Seifter (% of control) (rats; sc, 50% hpbcd, 4 mg/kg): 1073.1 % of control
C#C[C@@]1(O)CC[C@@]2(C)[C@H](CC[C@@H]3[C@@H]2CC[C@]2(C)[C@@H](C(=O)COC(=O)CCC(=O)O)CC[C@@H]32)C1 [3α,21-dihydroxy-3β-ethynyl-5β-pregnan-20-one 21 hemisuccinat] [3α,21-dihydroxy-3β-ethynyl-5β-pregnan-20-one 21 hemisuccinate] |  | 82 |  | 164.2% | Geller/Seifter (% of control) (rats; po, water, 16 mg/kg): 1350.0 % of control; % Protected ([1]; water, 10 mg/kg): 50%
C[C@]12CC[C@H]3[C@@H](CC[C@@H]4C[C@@](O)(C(F)(F)F)CC[C@@H]43)[C@@H]1CC[C@@H]2C(=O)COC(=O)CCC(=O)[O-].[Na+] [3α,21-dihydroxy-3β-trifluoromethyl-19-nor-5β-pregnan-20-one, 21-hemisuccinate, sodium salt] | 0.53 µM | 101 |  |  | Geller/Seifter (% of control) (rats; po, water, 8 mg/kg): 2493.4 % of control; % Protected ([1]; water, 10 mg/kg): 50%; % Control (mice; IP, water, 20 mg/kg): 161.1%
C#C[C@@]1(O)CC[C@@]2(C)[C@@H](CC[C@@H]3[C@@H]2CC[C@]2(C)[C@@H](C(C)=O)CC[C@@H]32)C1 [3α-hydroxy-3β-ethynyl-5α-pregnan-20-one, 3β-Ethynyl-3α-hydroxy-5α-pregnan-20-one] | 0.053 µM | 91 | 87.5% | 213% | Geller/Seifter (% of control) (rats; sc, 50% hpbcd, 8 mg/kg): 830.2 % of control
CC=C1CCC2C3CCC4CC(O)(C(F)(F)F)CCC4C3CCC12C (stereo not drawn) [3α-Hydroxy-3β-trifluoromethyl-5β-19-norpregn-17(20)(Z)-ene] |  |  | 25% |  | Geller/Seifter (% of control) (rats; sc, 50% hpbcd, 16 mg/kg): 1130.3 % of control
Bis (3α,21-dihydroxy-3β-trifluoromethyl-5β-pregnan-20-one) 21-hemisuccinate | 0.189 µM | 23 | 25% | 92% | 
CC(=O)[C@H]1CC[C@H]2[C@@H]3CC[C@H]4C[C@@](O)(C(F)(F)F)CC[C@@H]4[C@H]3CC[C@]12C [3β-Trifluoromethyl-3α-hydroxy-5α-19-norpregnan-20-one] | 0.251 µM | 40 | 25% | 161% | 
CC(=O)[C@H]1CC[C@H]2[C@@H]3CC[C@@H]4C[C@@](O)(C(F)(F)F)CC[C@]4(C)[C@H]3C=C[C@]12C [3α-Hydroxy-3β-trifluoromethyl-5β-pregn-11-en-20-one] | 0.203 µM | 99 |  |  | Geller/Seifter (% of control) (rats; sc, 50% hpbcd, 4 mg/kg): 508.3 % of control
C[C@]12CC[C@](O)(CF)C[C@@H]1CC[C@@H]1[C@@H]2CC[C@]2(C)[C@@H](C(=O)CO)CC[C@@H]12 [3α,21-dihydroxy-3β-fluoromethyl-5α-pregnan-20-one] | 0.592 µM | 101 | 25% | 109% | 
C#C[C@@]1(O)CC[C@@]2(C)[C@H](CC[C@@H]3[C@@H]2CC[C@]2(C)[C@@H](C(=O)COC(C)=O)CC[C@@H]32)C1 [3α,21-Dihydroxy-3β+ethynyl-5β-pregnan-20-one 21-acetate] | 0.251 µM | 101 | 62.5% | 159% | 
CC(O)C1CCC2C3CCC4CC(C)(O)CCC4(C)C3CCC12C (stereo not drawn) [3α,20α-dihydroxy-3β-methyl-5α-pregnane] | 0.166 µM | 52 |  |  | % Protected ([1]; micro soln., 100 mg/kg): 60%; % Control (mice; IV, micro soln., 10 mg/kg): 174.5%
